Test results taken from US9512172B2, “Ethanol dependence of alpha1 antitrypsin C-terminal Lys truncation by basic carboxypeptidases” (Baxalta Incorporated, priority 2006, dated 2016).

Tests used:
CPN [1] = molecular target: T1, CPN (Homo sapiens, UniProt P15169); conditions: at 10% ethanol
T1 sequence (P15169 21-458): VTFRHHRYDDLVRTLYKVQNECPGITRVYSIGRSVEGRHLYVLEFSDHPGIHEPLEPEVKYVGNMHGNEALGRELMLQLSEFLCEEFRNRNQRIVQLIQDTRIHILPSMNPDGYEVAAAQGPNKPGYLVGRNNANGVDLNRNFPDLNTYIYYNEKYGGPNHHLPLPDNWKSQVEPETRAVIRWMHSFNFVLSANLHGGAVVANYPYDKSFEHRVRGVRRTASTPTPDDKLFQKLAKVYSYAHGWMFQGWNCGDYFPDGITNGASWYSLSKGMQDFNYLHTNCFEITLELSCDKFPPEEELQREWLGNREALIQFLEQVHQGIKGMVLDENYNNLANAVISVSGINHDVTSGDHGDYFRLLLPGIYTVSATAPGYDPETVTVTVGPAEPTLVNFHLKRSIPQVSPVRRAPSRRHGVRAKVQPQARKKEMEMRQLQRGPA
T1 sequence (P22792 22-545 partner): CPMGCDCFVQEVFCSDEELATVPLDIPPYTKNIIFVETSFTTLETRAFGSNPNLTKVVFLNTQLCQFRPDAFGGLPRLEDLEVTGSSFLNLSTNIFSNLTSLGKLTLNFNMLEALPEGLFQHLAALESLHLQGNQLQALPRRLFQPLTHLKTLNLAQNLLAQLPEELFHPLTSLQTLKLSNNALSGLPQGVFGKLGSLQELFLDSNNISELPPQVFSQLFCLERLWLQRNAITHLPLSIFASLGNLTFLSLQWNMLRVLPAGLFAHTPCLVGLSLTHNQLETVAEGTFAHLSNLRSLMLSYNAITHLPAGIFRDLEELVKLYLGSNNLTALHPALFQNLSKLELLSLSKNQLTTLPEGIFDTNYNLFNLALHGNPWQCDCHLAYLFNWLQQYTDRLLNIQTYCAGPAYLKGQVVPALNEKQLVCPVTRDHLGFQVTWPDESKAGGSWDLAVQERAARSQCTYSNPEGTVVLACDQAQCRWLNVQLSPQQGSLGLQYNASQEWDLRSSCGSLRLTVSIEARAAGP
Protocol: The activity of the basic carboxypeptidases was measured with a HPLC-assisted assay as described^52. This assay is based on the cleavage of the synthetic substrate hippuryl-L-arginine. Released hippuric acid was determined with reverse phase high performance liquid chromatography (RP-HPLC). Briefly, to 10 μl of sample, 40 μl of 30 mM hippuryl-L-arginine (Bachem Feinchemikalien, Buchs, Switzerland) in 50 mM HEPES, pH 8.0, was added and incubated for 30 minutes at 37° C. in a water bath. Hippuryl-L-arginine cleavage was stopped by adding 50 μl of 1 M HCl. 10 μl of o-methyl hippuric acid (synthesized from methylbenzoyl chloride) serving as an internal standard was added afterwards. The hippuric acid (Bz-Gly, Fluka, Buchs, Switzerland) and o-methyl hippuric acid were extracted with ethyl acetate (300 μl). This layer was evaporated to dryness, redissolved in the mobile phase (10 mM KH2PO4, 10% acetonitrile, pH 3.5) and injected unto the column (C-18 Chromolith, performance 100-4.6 mm column (Merck, Darmstadt, Germany). The separation was done in isocratic mode and monitored at 228 nm. One unit of carboxypeptidase activity is defined as the amount of enzyme required to release 1 μmol of hippuric acid per min at 37° C. under the assay conditions described.

CPN [2] = molecular target: T1, CPN; conditions: cited from earlier work
CPU = molecular target: T2, CPU (Homo sapiens, UniProt Q96IY4); conditions: cited from earlier work
T2 sequence (Q96IY4 115-423): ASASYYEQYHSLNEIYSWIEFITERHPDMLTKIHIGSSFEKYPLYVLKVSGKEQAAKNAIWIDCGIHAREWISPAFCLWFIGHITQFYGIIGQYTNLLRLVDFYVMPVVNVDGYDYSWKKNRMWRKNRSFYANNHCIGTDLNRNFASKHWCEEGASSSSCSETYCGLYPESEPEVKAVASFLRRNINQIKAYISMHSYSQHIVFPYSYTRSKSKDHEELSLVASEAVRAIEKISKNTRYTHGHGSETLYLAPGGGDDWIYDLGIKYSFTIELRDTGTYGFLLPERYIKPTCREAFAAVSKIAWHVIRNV

CPN present in the paste = molecular target: T3, CPN present in the paste (Homo sapiens, UniProt P15169); assay: Effect of CP inhibitors on C-terminal lysine truncation in dissolved, ethanol-treated IV-1 paste (IEF); format: biochemical
T3 construct: Cohn IV-1 precipitate is usually derived after ethanol fractionation of plasma; from tissue; host or cells: Cohn IV-1 paste (ethanol precipitate of plasma)
T3 sequence (P15169 21-458): T1 sequence (P15169 21-458)
T3 sequence (P22792 22-545 partner): T1 sequence (P22792 22-545 partner)
Protocol: Cohn IV-1 paste was dissolved in 2.6 volumes of 10 mM Tris-buffer at pH 8.8 and incubated for 30 min at 22° C. The suspension was made 40% in ethanol (by addition of 2.4 volumes of ethanol), stirred for a further 60 min, diluted with the same Tris-buffer to 10% ethanol and extracted for a further 6 h.
The following inhibitors were added in parallel during extraction and dilution with Tris-buffer: 100 mM 6-aminocaproic acid, 10 μM or 1 nM 2-mercaptomethyl-3-guanidinoethylthiopropanoic acid (a more specific inhibitor of CPN). The samples were characterized by high resolution isoelectric focusing.
For high resolution isoelectric focusing a new hybrid IEF method using IPG-Immobiline gels (GE Healthcare Bio-Sciences, pI 4.2-4.9, Uppsala, Sweden) was developed which is similar to that described by Weidinger^54. Samples were diluted with water to 0.5 mg A1PI/mL and 5 mM DTE was added. Samples (20 μl) were applied close to the cathode on the pre-focused gel and focused for 150 min (5000 Vh). For paste extracts focusing time was extended to 420 min. Gels were stained with Coomassie Brilliant Blue G-250 (BioRad, Hercules, USA) as described by Neuhoff^55. Blotting and immunostaining were done with a rabbit anti-A1PI antibody (Rabbit Anti-Human Alpha-1-Antitrypsin, #A0012, DakoCytomation, Glostrup, Denmark).

Rate of substrate (Bz-Gly-Arg) cleavage by CPN (CPN [1]) | Inhibition of Lys truncation induced by the procedure 40=>10% EtOH (CPN present in the paste; dissolved IV-1 paste, pH 8.8, 6 h) | Inhibition of lysine removal from A1PI (CPN present in the paste; inhibitor at 10 μmol/l) | SMILES | Ki (CPN [2]) | Ki (CPU)
almost doubled |  |  | CCO [ethanol] |  | 
 | dose-dependently | completely inhibited | N=C(N)NCCSCC(CS)C(=O)O (racemic) [DL-2-mercaptomethyl-3-guanidinoethylthio-propanoic acid] | 8.7 nM | 200 nM
